{"source": "patent EP3207939A2", "about": "“USE OF A PROTEIN/PEPTIDE COMPLEX FOR TREATING AND PREVENTING ATHEROSCLEROSIS, METHOD FOR TREATING AND PREVENTING ATHEROSCLEROSIS (VARIANTS)” (Diamondzlite Limited, priority 2014, dated 2016)", "key": {"[1]": {"conditions": "cited from earlier work"}, "[2]": {"tested_on": "atherosclerotic cells of the intima of human's aorta", "assay": "Intracellular cholesterol and lipid content in cultured atherosclerotic cells, in vitro model"}, "[3]": {"tested_on": "cultured atherosclerotic cells", "assay": "Inclusion of [3H] thymidine (proliferative activity) in cultured atherosclerotic cells", "format": "cell-based, human", "procedure": "For research on the impact of the original PPC and PPPC with the conditional name \"Cellex\" (hereinafter - Cellex, as a modifier and activator of biological reactions) on the level of reduction of the atherogenic potential of blood serum of patients having atherosclerosis according to the known method, a primary culture of subendothelial cells of the human's aorta was obtained from various sections of the intima of the thoracic aorta of men and women aged 40-65 years within 1.5-3 hours after sudden death, which differed by the degree of atherosclerotic disease, then it was treated by collagenase, and the cells were cultured."}, "[4]": {"tested_on": "cells extracted from normal or damaged sections of the intima of human's aorta", "assay": "Determination of the synthesis of collagen ([3H]-proline inclusion)", "format": "cell-based", "conditions": "Verapamil 5 x 10^-5 M; control 2500 ± 102 dpm/103", "procedure": "Cells extracted from normal or damaged sections of the intima of human's aorta were incubated for 24 hours in the presence of 5 µCi/ml [3H]-proline. Upon completion of incubation, inclusion of marked proline into the culture medium fraction treated by collagenase was determined by the method of Peterkofsky and Diegelmann. Table 1. Influence of lipostabil, lovastatin and cellex on the cholesterol content in atherosclerotic cells of the intima of human's aorta in vitro."}, "[5]": {"tested_on": "primary culture of atherosclerotic cells", "assay": "Ex vivo model: volunteers' blood serum added to primary culture of atherosclerotic cells, intracellular cholesterol", "format": "cell-based, human", "procedure": "For the ex vivo model, blood was taken from volunteers immediately prior to Cellex intake and after the corresponding intervals after the intranasal intake (after 2, 4, and 6 hours for screening studies and assessment of the short-term effect, as well as after 4, 8, 12, and 24 hours for the assessment of duration of the effect).\nVolunteers took PPC - Cellex at once in the form of an intranasal spray in complex with polynucleotides in the form of sodium salts of DNA - PPPC, 400 µg of a 0.1% solution (per total protein and DNA) - 2 injections of 200 µg in each nasal duct in the morning, the drug for comparison was Verapamil in the dose of 400 mg; the control group received intranasally 50 mM of glycine-phosphate buffer solution with the same pH (7.8) and with the same regimen. Blood was taken prior to drug or control intake (time \"0\") and 1, 2, 4, and 8 hours after the intake. Samples were prepared from the bloodserum, and serum samples were added to the primary culture of atherosclerotic cells. […] Consequently, starting from the 1 st hour after single intake of the claimed drug and from the 2nd hour after Verapamil intake, blood serum acquires antiatherosclerotic properties manifested in the contribution to reverse cholesterol transport from atherosclerotic cells. Antiatherosclerotic properties of serum are preserved for at least 12 hours after Verapamil intake and up to 18 hours after intake of the claimed drug. Table 5. Comparative table of the antiatherogenic action of Cellex and Verapamil in the ex vivo model."}, "[6]": {"conditions": "rabbits, 28 days, food with 1% cholesterol, 0.6 g of beta-carotene per 1 kg of food; cited from earlier work"}, "[7]": {"conditions": "hypersensitive rats, 125-500 mg per 1 kg of food with cholesterol-rich food, 44 days; cited from earlier work"}, "[8]": {"conditions": "guinea pigs, 12 weeks, cited from earlier work"}, "[9]": {"conditions": "smoking people, 20 mg/day, 14 weeks; cited from earlier work"}, "[10]": {"conditions": "rabbits, single peroral administration; cited from earlier work"}, "[11]": {"conditions": "long-term administration, daily dose of 3 g"}}, "note": "Where two headings read alike, the source gives them in different places."}
{"smiles": "N[C@H](Cc1cc(I)c(Oc2cc(I)c(O)c(I)c2)c(I)c1)C(=O)O", "note": "[D-thyroxine]", "values": [{"measurement": "reduction of the concentration of low-density lipoproteins", "setting": "[1]; daily dose of 4-8 mg", "value": 20, "unit": "%"}]}
{"smiles": "CC[C@H](C)C(=O)O[C@H]1C[C@@H](C)C=C2C=C[C@H](C)[C@H](CC[C@@H]3C[C@@H](O)CC(=O)O3)[C@H]21", "note": "[Lovastatin]", "values": [{"measurement": "Content of intracellular cholesterol", "setting": "[2]; concentration 10^-6 M, control 105 ± 11, average of three independent experiments", "value": "110 ± 10", "unit": "µg/mg"}]}
{"smiles": "COc1ccc(CCN(C)CCCC(C#N)(c2ccc(OC)c(OC)c2)C(C)C)cc1OC", "note": "(centres unmarked) [Verapamil]", "values": [{"measurement": "Inclusion of [3H] thymidine", "setting": "[3]; Verapamil 10^-4 M", "value": "20 ± 2 % of control"}, {"measurement": "Inclusion of [3H] thymidine", "setting": "[3]; Verapamil 10^-5 M", "value": "34 ± 2 % of control"}, {"measurement": "Inclusion of [3H] thymidine", "setting": "[3]; Verapamil 10^-6 M", "value": "50 ± 2 % of control"}, {"measurement": "Inclusion of [3H] thymidine", "setting": "[3]; Verapamil 10^-7 M", "value": "86 ± 7 % of control"}, {"measurement": "Synthesis of collagen", "setting": "[4]", "value": "74 ± 5 % of control"}, {"measurement": "Antiatherosclerotic properties of serum are preserved", "setting": "[5]; after single intake", "value": "at least 12 hours"}, {"measurement": "blood serum acquires antiatherosclerotic properties, starting from", "setting": "[5]; after single intake", "value": 2, "unit": "h"}, {"measurement": "Intracellular cholesterol content", "setting": "[5]; serum 1 hr after Verapamil 400 mg, control 221 ± 13 µg cholesterol per 1 mg cellular protein", "value": "97 ± 10 % of control"}, {"measurement": "Intracellular cholesterol content", "setting": "[5]; serum 2 hr after Verapamil 400 mg", "value": "84 ± 6 % of control"}, {"measurement": "Intracellular cholesterol content", "setting": "[5]; serum 4 hr after Verapamil 400 mg", "value": "77 ± 8 % of control"}, {"measurement": "Intracellular cholesterol content", "setting": "[5]; serum 8 hr after Verapamil 400 mg", "value": "85 ± 4 % of control"}, {"measurement": "Intracellular cholesterol content", "setting": "[5]; serum 12 hr after Verapamil 400 mg", "value": "90 ± 6 % of control"}, {"measurement": "Intracellular cholesterol content", "setting": "[5]; serum 18 hr after Verapamil 400 mg", "value": "104 ± 4 % of control"}, {"measurement": "Triglycerides", "setting": "[2]; Verapamil 5 x 10^-5 M, control 12.1 ± 1.7 µg/105", "value": "76 ± 2 % of control"}, {"measurement": "Free cholesterol", "setting": "[2]; Verapamil 5 x 10^-5 M, control 46.8 ± 5.3 µg/105", "value": "90 ± 8 % of control"}, {"measurement": "Phospholipids", "setting": "[2]; Verapamil 5 x 10^-5 M, control 71.4 ± 10.9 µg/105", "value": "61 ± 8 % of control"}, {"measurement": "Total cholesterol", "setting": "[2]; Verapamil 10^-5 M", "value": "61 ± 4 % of control"}, {"measurement": "Total cholesterol", "setting": "[2]; Verapamil 10^-6 M", "value": "82 ± 8 % of control"}, {"measurement": "Total cholesterol", "setting": "[2]; Verapamil 10^-7 M, control 57.4 ± 1.2 µg/105", "value": "104 ± 5 % of control"}]}
{"smiles": "CC1=C(/C=C/C(C)=C/C=C/C(C)=C/C=C/C=C(C)/C=C/C=C(C)/C=C/C2=C(C)CCCC2(C)C)C(C)(C)CCC1", "note": "[beta-carotene]", "values": [{"measurement": "LDL resistance to oxidation", "setting": "[6]", "value": "no impact of beta-carotene on LDL resistance to oxidation was detected"}, {"measurement": "elasticity of endothelial vessels", "setting": "[6]", "value": "elasticity of endothelial vessels was preserved"}, {"measurement": "cholesterol and triglyceride levels in blood serum", "setting": "[7]", "value": "dose-dependent reduction"}, {"measurement": "sizes of sclerotic clots in aorta", "setting": "[8]; 50 mg of beta-carotene/100 g of food", "value": "significant reduction"}, {"measurement": "cholesterol and triglyceride levels in blood serum", "setting": "[8]; daily 0.2% cholesterol and 15-30 mg of beta-carotene", "value": "no verifiable differences"}, {"measurement": "beta-carotene level in blood serum increased", "setting": "[9]", "value": 15, "unit": "times"}, {"measurement": "level of lipoproteins in blood serum", "setting": "[9]", "value": "no visible effect was identified"}]}
{"smiles": "CC(C)=CCC/C(C)=C/C=C/C(C)=C/C=C/C(C)=C/C=C/C=C(C)/C=C/C=C(C)/C=C/C=C(\\C)CCC=C(C)C", "note": "[lycopene]", "values": [{"measurement": "return of blood serum concentration to the initial level", "setting": "[10]", "value": 24, "unit": "h"}, {"measurement": "time of maximum concentration in blood serum", "setting": "[10]", "value": 8, "unit": "h"}]}
{"smiles": "O=C(O)c1cccnc1", "note": "[nicotinic acid]", "values": [{"measurement": "cholesterol level in blood serum lowered", "setting": "[1]; [11]", "value": 10, "unit": "%"}, {"measurement": "triglycerides in blood serum lowered", "setting": "[1]; [11]", "value": 20, "unit": "%"}]}
